Experimental findings from patent publication US12371430B2, “5-morpholin-4-yl-pyrazolo[4,3-b]pyridine derivatives” (Merck Patent GmbH, priority 2018, dated 2025) are described below.

The subject of data set [1] is phosphorylation of Chk1 (Ser 345) in HT29 colon adenocarcinoma cells. As to the kind of experiment: pCHK1 cellular assay. Type of data set: cell-based. The conditions noted are these: Homo sapiens, HT-29, hydroxyurea 3 mM, 4 h. In outline:
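HT29 cells plated ≥20 h, then compound (1 nM–30 μM final) with hydroxyurea (3 mM final) added together for 4 h at 37 °C. After MeOH/Triton fixation-permeabilisation, anti-pChk1 immunostaining plus nuclear stain; nuclear pChk1 imaged by confocal high content reader, reported as % positive nuclei.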

In data set [2] the target is ATR/ATRIP (Homo sapiens (Human), UniProt Q13535). As to the kind of experiment: ATR/ATRIP kinase assay (TR-FRET, p53 Ser15 phosphorylation). Type of data set: biochemical. The conditions noted are these: 0.5 μM ATP, 50 nM p53. In outline:
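Full-length human ATR/ATRIP co-expressed in mammalian cells (typically 0.3 nM) preincubated with compound 15 min at 22° C, then 50 nM cmyc-p53 and 0.5 μM ATP added for typically 25 min; HEPES pH 8.0 with Mg2+/Mn2+. p53 Ser15 phosphorylation read by HTRF (665/615 ratio); IC50 by nonlinear regression.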
(In general: Time-resolved FRET reads energy transfer from a long-lived donor to a nearby acceptor.)

The target of data set [3] is Kv11.1 (hERG) ion channel (Homo sapiens (Human), UniProt Q12809). Briefly: Kv11.1 (hERG) ion channel activity, whole cell patch clamp in HEK293. The conditions noted are these: for pKi: heading: hERG Ki, HEK293 cells stably expressing hERG, patch clamp. Type of data set: cell-based. As for the experimental part:
Kv11.1 (hERG) Ion Channel Activity
In this assay, a potential in vitro effect of test compounds on the Kv11.1 (hERG) ion channel current is investigated which mediates the rapidly activating, delayed rectifier cardiac potassium current (IKr). The assay is performed with a stable Kv11.1 (hERG) transfected human embryonic kidney cell line (HEK293) by whole cell patch clamp technique carried out at room temperature.
The Kv11.1 (hERG) ion channel blocker quinidine is used as reference compound. The effects of the test compounds and quinidine are normalized to the corresponding vehicle control. The whole cell recordings are carried out with an automated patch clamp device Patchliner™, Nanion Technologies, Munich). Hereby the Patch Clamp measurements run on silicate-coated chips with a hole of a defined diameter. Solutions, cell suspension and compounds are applied by a Teflon-laminated pipette needle through microfluidic silicate-laminated channels. Commercial patch clamp amplifiers (EPC10, HEKA Elektronik Dr. Schulze GmbH, Germany) are used for the patch clamp recordings. HEK293 cells stably expressing the hERG gene are held at −80 mV. Steady-state inhibition of Kv11.1 (hERG) potassium current due to test/reference compound application is measured using a pulse pattern with fixed amplitudes: 51 ms/−80 mV, 500 ms/+40 mV, 500 ms/−40 mV, 200 ms/−80 mV. The hERG-specific voltage protocol is repeated at 10 s intervals. The leak current is subtracted by a P4 leak subtraction. Cells are resuspended in extracellular patch clamp solution (EC) and applied into the chip. After trapping the cell, the EC is exchanged by seal enhancer solution (SE) to improve the sealing procedure. When the whole cell configuration is attained, seal enhancer is washed out by the application of EC. The recording is started in EC for 1.5 min. Afterwards DMSO (vehicle control, 0.1% DMSO) is applied and the control current is measured for 3 min. Following control steady-state current, test compound is applied twice at the same concentration and the tail current is measured for 3.5 min each. For the determination of a concentration-relationship, the test compound is applied as a cumulative concentration-response curve and each concentration is measured for 5 min. The reference compound quinidine is treated in the same way. The effect on Kv11.1 (hERG) ion channel activity is judged from the tail current amplitude monitored at −40 mV (current of interest, COI). Results are calculated from the last recorded current traces. Changes in Kv11.1 (hERG) ion channel activity between control value, defined as 100% Kv11.1 (hERG) ion channel activity, application of test compound and application of quinidine is reported as percent change of control value of COI. An aliquot of test compound is collected for concentration verification during the recording. The sample is immediately measured by HPLC and the final compound concentration within the assay is calculated according to a calibration curve.

pIC50, pKi: −log10 of the molar value.

ATR/ATRIP, sequence (Q13535 whole entry): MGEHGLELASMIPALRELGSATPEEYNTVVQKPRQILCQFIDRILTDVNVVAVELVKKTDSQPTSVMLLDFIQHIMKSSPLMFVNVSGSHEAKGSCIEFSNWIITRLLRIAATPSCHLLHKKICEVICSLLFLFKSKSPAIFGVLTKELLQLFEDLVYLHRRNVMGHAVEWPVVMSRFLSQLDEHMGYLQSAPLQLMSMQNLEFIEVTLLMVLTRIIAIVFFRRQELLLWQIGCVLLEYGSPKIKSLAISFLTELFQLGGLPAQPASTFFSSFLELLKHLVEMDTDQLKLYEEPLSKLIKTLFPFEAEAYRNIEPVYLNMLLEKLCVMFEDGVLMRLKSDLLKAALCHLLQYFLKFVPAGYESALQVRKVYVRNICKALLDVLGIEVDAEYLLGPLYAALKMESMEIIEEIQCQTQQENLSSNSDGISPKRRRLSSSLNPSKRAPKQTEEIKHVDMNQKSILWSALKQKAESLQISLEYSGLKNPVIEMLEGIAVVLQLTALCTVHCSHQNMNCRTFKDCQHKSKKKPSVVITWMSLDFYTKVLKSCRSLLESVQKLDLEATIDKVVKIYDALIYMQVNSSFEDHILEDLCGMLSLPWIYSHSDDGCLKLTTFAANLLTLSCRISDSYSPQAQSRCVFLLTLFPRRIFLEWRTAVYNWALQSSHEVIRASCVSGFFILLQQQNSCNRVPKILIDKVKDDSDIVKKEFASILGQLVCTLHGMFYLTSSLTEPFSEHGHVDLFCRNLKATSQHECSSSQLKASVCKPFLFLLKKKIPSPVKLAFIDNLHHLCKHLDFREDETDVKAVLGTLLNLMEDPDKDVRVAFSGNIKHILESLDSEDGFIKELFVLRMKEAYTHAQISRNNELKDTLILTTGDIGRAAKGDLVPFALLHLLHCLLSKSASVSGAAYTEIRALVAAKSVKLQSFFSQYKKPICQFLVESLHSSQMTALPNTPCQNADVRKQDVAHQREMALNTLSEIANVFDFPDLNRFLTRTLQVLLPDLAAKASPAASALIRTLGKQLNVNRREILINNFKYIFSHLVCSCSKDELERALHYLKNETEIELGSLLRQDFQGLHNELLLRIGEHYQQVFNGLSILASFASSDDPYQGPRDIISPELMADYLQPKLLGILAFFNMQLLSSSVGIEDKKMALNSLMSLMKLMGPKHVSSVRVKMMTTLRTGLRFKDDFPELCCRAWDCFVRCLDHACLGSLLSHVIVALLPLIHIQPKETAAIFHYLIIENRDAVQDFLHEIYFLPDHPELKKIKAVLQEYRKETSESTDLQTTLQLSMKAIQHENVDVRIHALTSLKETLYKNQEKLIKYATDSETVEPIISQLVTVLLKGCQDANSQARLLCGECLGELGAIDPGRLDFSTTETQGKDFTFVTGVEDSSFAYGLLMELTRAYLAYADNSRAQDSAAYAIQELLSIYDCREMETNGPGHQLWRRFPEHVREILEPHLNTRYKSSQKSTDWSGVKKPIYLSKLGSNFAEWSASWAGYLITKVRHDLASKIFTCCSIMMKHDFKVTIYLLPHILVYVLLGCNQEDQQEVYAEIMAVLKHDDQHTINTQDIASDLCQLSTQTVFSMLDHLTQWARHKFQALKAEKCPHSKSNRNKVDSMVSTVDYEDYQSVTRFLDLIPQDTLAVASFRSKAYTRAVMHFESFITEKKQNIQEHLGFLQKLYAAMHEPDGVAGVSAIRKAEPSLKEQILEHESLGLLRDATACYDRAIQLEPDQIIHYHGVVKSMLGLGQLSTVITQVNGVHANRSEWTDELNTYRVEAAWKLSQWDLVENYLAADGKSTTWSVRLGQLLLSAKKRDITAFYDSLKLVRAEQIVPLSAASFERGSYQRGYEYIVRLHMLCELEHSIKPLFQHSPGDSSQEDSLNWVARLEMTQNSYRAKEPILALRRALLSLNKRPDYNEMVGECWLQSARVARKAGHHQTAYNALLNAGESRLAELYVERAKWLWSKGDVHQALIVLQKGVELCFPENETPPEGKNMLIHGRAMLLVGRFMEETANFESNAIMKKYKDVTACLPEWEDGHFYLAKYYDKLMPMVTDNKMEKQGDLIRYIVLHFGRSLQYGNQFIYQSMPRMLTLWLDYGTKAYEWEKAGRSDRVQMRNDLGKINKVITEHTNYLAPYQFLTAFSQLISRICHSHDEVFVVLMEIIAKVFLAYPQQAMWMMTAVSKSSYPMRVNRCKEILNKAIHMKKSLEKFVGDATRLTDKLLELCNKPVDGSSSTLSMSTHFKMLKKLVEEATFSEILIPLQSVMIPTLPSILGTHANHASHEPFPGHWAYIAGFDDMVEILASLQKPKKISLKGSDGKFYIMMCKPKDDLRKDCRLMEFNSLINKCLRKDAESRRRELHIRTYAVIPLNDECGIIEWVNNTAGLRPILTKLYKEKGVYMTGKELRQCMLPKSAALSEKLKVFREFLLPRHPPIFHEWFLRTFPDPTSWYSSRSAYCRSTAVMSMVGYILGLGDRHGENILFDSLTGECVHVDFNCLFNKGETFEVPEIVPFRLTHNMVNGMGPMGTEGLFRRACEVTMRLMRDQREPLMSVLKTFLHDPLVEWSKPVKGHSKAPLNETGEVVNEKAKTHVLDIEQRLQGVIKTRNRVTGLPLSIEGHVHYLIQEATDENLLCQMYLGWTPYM
ATR/ATRIP, sequence (Q8WXE1 whole entry partner): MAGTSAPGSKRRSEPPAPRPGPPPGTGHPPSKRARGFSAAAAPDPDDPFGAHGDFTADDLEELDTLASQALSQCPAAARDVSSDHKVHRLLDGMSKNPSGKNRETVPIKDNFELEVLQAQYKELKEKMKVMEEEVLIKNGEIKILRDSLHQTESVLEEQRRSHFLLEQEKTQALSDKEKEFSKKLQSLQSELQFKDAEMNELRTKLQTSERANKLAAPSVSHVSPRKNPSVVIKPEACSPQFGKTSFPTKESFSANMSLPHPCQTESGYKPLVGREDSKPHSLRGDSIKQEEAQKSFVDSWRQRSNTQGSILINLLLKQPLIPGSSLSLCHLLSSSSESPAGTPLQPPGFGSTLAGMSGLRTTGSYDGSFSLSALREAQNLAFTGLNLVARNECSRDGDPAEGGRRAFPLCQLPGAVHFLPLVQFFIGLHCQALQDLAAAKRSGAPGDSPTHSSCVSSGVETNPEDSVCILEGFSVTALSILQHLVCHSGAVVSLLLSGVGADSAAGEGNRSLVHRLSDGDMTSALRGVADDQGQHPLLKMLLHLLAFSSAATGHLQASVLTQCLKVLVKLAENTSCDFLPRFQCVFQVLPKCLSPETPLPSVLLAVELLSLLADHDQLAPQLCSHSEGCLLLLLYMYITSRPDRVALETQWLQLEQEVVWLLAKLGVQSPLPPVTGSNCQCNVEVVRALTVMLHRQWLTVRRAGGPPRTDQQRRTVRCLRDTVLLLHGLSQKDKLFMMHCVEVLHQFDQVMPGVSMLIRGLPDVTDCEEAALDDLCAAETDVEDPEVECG
Kv11.1 (hERG) ion channel, sequence (Q12809 whole entry): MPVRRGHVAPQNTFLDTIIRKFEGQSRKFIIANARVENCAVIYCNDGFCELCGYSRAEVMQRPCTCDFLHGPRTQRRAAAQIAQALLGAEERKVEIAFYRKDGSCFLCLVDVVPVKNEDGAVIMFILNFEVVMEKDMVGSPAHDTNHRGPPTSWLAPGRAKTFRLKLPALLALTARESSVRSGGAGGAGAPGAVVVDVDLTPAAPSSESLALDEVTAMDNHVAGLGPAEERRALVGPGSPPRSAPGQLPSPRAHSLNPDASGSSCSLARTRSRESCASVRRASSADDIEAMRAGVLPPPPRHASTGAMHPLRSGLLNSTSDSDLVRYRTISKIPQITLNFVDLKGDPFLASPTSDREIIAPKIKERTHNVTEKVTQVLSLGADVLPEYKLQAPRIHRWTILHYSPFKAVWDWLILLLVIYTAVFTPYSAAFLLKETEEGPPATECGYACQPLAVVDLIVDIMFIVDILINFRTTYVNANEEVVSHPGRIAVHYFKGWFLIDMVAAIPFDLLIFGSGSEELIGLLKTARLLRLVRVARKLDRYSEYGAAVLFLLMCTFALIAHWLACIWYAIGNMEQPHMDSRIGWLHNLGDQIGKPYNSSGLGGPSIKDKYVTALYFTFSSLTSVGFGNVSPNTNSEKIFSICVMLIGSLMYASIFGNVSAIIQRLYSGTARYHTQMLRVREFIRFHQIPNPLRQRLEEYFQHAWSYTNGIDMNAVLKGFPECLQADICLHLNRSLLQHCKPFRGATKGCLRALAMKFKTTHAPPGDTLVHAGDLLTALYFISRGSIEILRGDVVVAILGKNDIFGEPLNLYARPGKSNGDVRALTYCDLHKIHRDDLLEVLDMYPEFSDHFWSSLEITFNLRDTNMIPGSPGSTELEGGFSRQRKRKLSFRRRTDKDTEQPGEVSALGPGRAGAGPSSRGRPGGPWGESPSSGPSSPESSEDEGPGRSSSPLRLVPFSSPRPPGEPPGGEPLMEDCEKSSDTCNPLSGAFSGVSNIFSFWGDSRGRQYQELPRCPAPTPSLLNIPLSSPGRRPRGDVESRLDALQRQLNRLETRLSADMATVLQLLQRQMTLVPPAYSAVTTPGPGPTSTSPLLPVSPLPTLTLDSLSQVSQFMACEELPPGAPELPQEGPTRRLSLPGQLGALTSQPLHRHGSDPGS

Consider `Cc1ccccc1-c1cc(N2CCOC[C@H]2C)nc2c(-c3cc[nH]n3)n[nH]c12` [Compound 35, (3R)-3-Methyl-4-[7-(2-methylphenyl)-3-(1H-pyrazol-3-yl)-1H-pyrazolo[4,3-b]pyridin-5-yl]morpholine], for which the pIC50 in data set [1] is 7.00 to 8.00; in data set [2] it was 9.30. In data set [3] (@ 10 μM), the “hERG % effect @ conc” value is on record as −23%. The pKi in data set [3] is < 5.00.

In the case of `Cc1nc([S+](C)[O-])ccc1-c1cc(N2CCOC[C@H]2C)nc2c(-c3cc[nH]n3)nn(C)c12` (stereo partly drawn) [Compound 8, 7-(6-Methanesulfinyl-2-methyl-pyridin-3-yl)-1-methyl-5-((R)-3-methyl-morpholin-4-yl)-3-(1H-pyrazol-3-yl)-1H-pyrazolo[4,3-b]pyridine], the figures for the pIC50 in data set [1] and in data set [2] were > 8.00 and 8.68, respectively. In data set [3] (@ 10 μM), the “hERG % effect @ conc” value is −6%. For the same molecule, in data set [3], the pKi is < 5.00.

On to `C[C@@H]1COCCN1c1cc(-c2ccc([S+](C)[O-])cc2)c2c(n1)c(-c1cc[nH]n1)nn2C` (stereo partly drawn) [Compound 5, 7-(4-Methanesulfinyl-phenyl)-1-methyl-5-((R)-3-methyl-morpholin-4-yl)-3-(1H-pyrazol-3-yl)-1H-pyrazolo[4,3-b]pyridine], for which the figures for the pIC50 in data set [1] and in data set [2] were 7.00 to 8.00 and 8.46, respectively. Moreover, the “hERG % effect @ conc” value in data set [3] (@ 10 μM) is on record as −22%. Further, the pKi in data set [3] is < 5.00.

Regarding `Cc1nc(S(C)(=O)=O)ccc1-c1cc(N2CCOC[C@H]2C)nc2c(-c3cc[nH]n3)nn(C)c12` [Compound 11, (3R)-4-[7-(6-Methanesulfonyl-2-methylpyridin-3-yl)-1-methyl-3-(1H-pyrazol-3-yl)-1H-pyrazolo[4,3-b]pyridin-5-yl]-3-methylmorpholine], the pIC50 was 7.00 to 8.00 in data set [1] and 9.05 in data set [2]. Moreover, the “hERG % effect @ conc” value in data set [3] (@ 10 μM) is on record as −5%. Moreover, the pKi in data set [3] was < 5.00.

With `C[C@@H]1COCCN1c1cc(C2=CCOCC2)c2c(n1)c(-c1cc[nH]n1)nn2C` [Compound 54, (3R)-4-[7-(3,6-Dihydro-2H-pyran-4-yl)-1-methyl-3-(1H-pyrazol-3-yl)-1H-pyrazolo[4,3-b]pyridin-5-yl]-3-methylmorpholine], the pIC50 in data set [1] is 7.00 to 8.00; in data set [2], 8.66. In addition, the “hERG % effect @ conc” value in data set [3] (@ 10 μM) was −2%. For the same molecule, the pKi in data set [3] is < 5.00.

On to `C[C@@H]1COCCN1c1cc([C@H]2CCCOC2)c2c(n1)c(-c1ccn[nH]1)nn2C` [Compound 68, 1-Methyl-5-((R)-3-methyl-morpholin-4-yl)-3-(2H-pyrazol-3-yl)-7-(R)-tetrahydro-pyran-3-yl-1H-pyrazolo[4,3-b]pyridine], for which the pIC50 in data set [1] was 7.00 to 8.00. The “hERG % effect @ conc” value in data set [3] (@ 30 μM) was −35%. The pKi in data set [3] is < 4.52.

As for `C[C@@H]1COCCN1c1cc(C(C)(C)O)c2c(n1)c(-c1cc[nH]n1)nn2C` [Compound 25, 2-[1-Methyl-5-((R)-3-methyl-morpholin-4-yl)-3-(1H-pyrazol-3-yl)-1H-pyrazolo[4,3-b]pyridin-7-yl]-propan-2-ol], the pIC50 was 7.00 to 8.00 in data set [1] and 8.37 in data set [2]. Besides, in data set [3] (@ 10 μM), the “hERG % effect @ conc” value is −1%. Moreover, the pKi in data set [3] was < 5.00.

In the case of `Cc1ccccc1-c1cc(N2CCOC[C@H]2C)nc2c(-c3ccn[nH]3)nn(C)c12` [Compound 49, (3R)-3-Methyl-4-[1-methyl-7-(2-methylphenyl)-3-(1H-pyrazol-5-yl)-1H-pyrazolo[4,3-b]pyridin-5-yl]morpholine], the figures for the pIC50 in data set [1] and in data set [2] were 7.00 to 8.00 and 8.74, respectively. Further, the “hERG % effect @ conc” value in data set [3] (@ 10 μM) is reported as −18%. The pKi in data set [3] is < 5.00.

On to `Cc1nn(C)cc1-c1cc(N2CCOC[C@H]2C)nc2c(-c3cc[nH]n3)nn(C)c12` [Compound 19, 7-(1,3-Dimethyl-1H-pyrazol-4-yl)-1-methyl-5-((R)-3-methyl-morpholin-4-yl)-3-(1H-pyrazol-3-yl)-1H-pyrazolo[4,3-b]pyridine], for which the results for the pIC50 in data set [1] and in data set [2] were 7.00 to 8.00 and 8.47, respectively. In addition, in data set [3] (@ 10 μM), the “hERG % effect @ conc” value is −6%. In data set [3], the pKi is < 5.00.

In the case of `C[C@@H]1COCCN1c1cc(C2(S(C)(=O)=O)CC2)c2c(n1)c(-c1cc[nH]n1)nn2C` [Compound 26, 7-(1-Methanesulfonyl-cyclopropyl)-1-methyl-5-((R)-3-methyl-morpholin-4-yl)-3-(1H-pyrazol-3-yl)-1H-pyrazolo[4,3-b]pyridine], the pIC50 in data set [1] was 7.00 to 8.00; in data set [2], 9.10. Also, the “hERG % effect @ conc” value in data set [3] (@ 30 μM) is listed as −24%. Also, in data set [3], the pKi was < 4.52.

As for `C[C@@H]1COCCN1c1cc(C2CCCOC2)c2c(n1)c(-c1ccn[nH]1)nn2C` (stereo partly drawn) [Compound 67, 1-Methyl-5-((R)-3-methyl-morpholin-4-yl)-3-(2H-pyrazol-3-yl)-7-(tetrahydro-pyran-3-yl)-1H-pyrazolo[4,3-b]pyridine], the pIC50 in data set [1] was 7.00 to 8.00; in data set [2], 9.10. The “hERG % effect @ conc” value in data set [3] (@ 10 μM) is −12%. Moreover, the pKi in data set [3] is < 5.00.

Regarding `Cc1ccc(-c2cc(N3CCOC[C@H]3C)nc3c(-c4cc[nH]n4)nn(C)c23)cn1` [Compound 1, 1-Methyl-5-((R)-3-methyl-morpholin-4-yl)-7-(6-methyl-pyridin-3-yl)-3-(1H-pyrazol-3-yl)-1H-pyrazolo[4,3-b]pyridine], the pIC50 was 7.00 to 8.00 in data set [1] and 8.64 in data set [2]. Moreover, the “hERG % effect @ conc” value in data set [3] (@ 30 μM) is reported as −28%. Besides, the pKi in data set [3] was < 4.52.

For the molecule `C[C@@H]1COCCN1c1cc(-c2ccnn2C(F)F)c2c(n1)c(-c1ccn[nH]1)nn2C` [Compound 78, (3R)-4-{7-[1-(Difluoromethyl)-1H-pyrazol-5-yl]-1-methyl-3-(1H-pyrazol-5-yl)-1H-pyrazolo[4,3-b]pyridin-5-yl}-3-methylmorpholine], in data set [1], the pIC50 is 7.00 to 8.00. In addition, the “hERG % effect @ conc” value in data set [3] (@ 30 μM) is on record as −12%. The pKi in data set [3] is < 4.52.

In the case of `C[C@@H]1COCCN1c1cc([C@@H]2CCOC2)c2c(n1)c(-c1ccn[nH]1)nn2C` [Compound 71, 1-Methyl-5-((R)-3-methyl-morpholin-4-yl)-3-(2H-pyrazol-3-yl)-7-(S)-tetrahydro-furan-3-yl-1H-pyrazolo[4,3-b]pyridine], in data set [1], the pIC50 is 7.00 to 8.00. The “hERG % effect @ conc” value in data set [3] (@ 10 μM) is on record as −16%. Further, in data set [3], the pKi was < 5.00.

Take `C[C@@H]1COCCN1c1cc([C@@H]2CCCOC2)c2c(n1)c(-c1ccn[nH]1)nn2C` [Compound 69, 1-Methyl-5-((R)-3-methyl-morpholin-4-yl)-3-(2H-pyrazol-3-yl)-7-(S)-tetrahydro-pyran-3-yl-1H-pyrazolo[4,3-b]pyridine]: in data set [1], the pIC50 was 7.00 to 8.00. Moreover, in data set [3] (@ 30 μM), the “hERG % effect @ conc” value is reported as −29%. In addition, in data set [3], the pKi was < 4.52.

Take `Cc1cccc(-c2cc(N3CCOC[C@H]3C)nc3c(-c4cc[nH]n4)nn(C)c23)n1` [Compound 33, 1-Methyl-5-((R)-3-methyl-morpholin-4-yl)-7-(6-methyl-pyridin-2-yl)-3-(1H-pyrazol-3-yl)-1H-pyrazolo[4,3-b]pyridine]: the pIC50 in data set [1] is 6.00 to 7.00; in data set [2], 7.80.

Turning to `Cc1ccc(-c2cc(N3CCOC[C@H]3C)nc3c(-c4cc(C)n[nH]4)n[nH]c23)cn1` [Compound 3, (3R)-3-Methyl-4-[3-(3-methyl-1H-pyrazol-5-yl)-7-(6-methylpyridin-3-yl)-1H-pyrazolo[4,3-b]pyridin-5-yl]morpholine], the pIC50 was 7.00 to 8.00 in data set [1] and 9.05 in data set [2].

Consider `C[C@@H]1COCCN1c1ccc2c(n1)c(-c1cc[nH]n1)nn2CC(C)(C)O` [Compound 85, 2-Methyl-1-{5-[(3R)-3-methylmorpholin-4-yl]-3-(1H-pyrazol-3-yl)-1H-pyrazolo[4,3-b]pyridin-1-yl}propan-2-ol], for which the figures for the pIC50 in data set [1] and in data set [2] were 5.00 to 6.00 and 7.68, respectively.

A word on the pIC50: it is the negative decadic logarithm of the IC50, by convention in mol/L. Read a high pIC50 as a small IC50. Usually pKi stands for the Ki on a negative log10 scale, so that one unit is a factor of ten. Low readings indicate a high Ki, high ones a low Ki.
